The results in this text go back to patent US12686875B2, “Small molecules for increasing precise genome editing efficiency” (Max-Planck-Gesellschaft zur Förderung der Wissenschaften …, priority 2018, dated 2026).

The subject of data set [1] is wild-type cell line, NFASC target. Description: Genome editing of NFASC target with transient NHEJ/MMEJ/SSA inhibition in a wild-type cell line. The format is cell-based. The following applies: combination of 2 μM M3814, 320 pmol PoIQ siRNA aa765, PoIQ coding strand nicking, 5 μM 6-OH-dopa, 50 μM AICAR. The source says: FIG. 7: Inhibition of RAD52 dependent single strand annealing (SSA) together with MMEJ inhibition is needed to further increase HDR for rare targets with long stretches of homology. The NFASC target has an 11 bp stretch of homology. The first three bars show editing efficiencies in a wild-type cell line, a DNA-PKcs KR cell line leading to NHEJ inhibition, and a DNA-PKcs KR+PoIQ Knockout cell line leading to NHEJ and MMEJ inhibition. […] HDR, mix (HDR with indels), NHEJ, and estimated MMEJ/SSA (at least 2 bp microhomology) are indicated in green, light green, light blue, and light purple, respectively. Error bars show the SEM of at least two replicates and one experiment for the last bar.
In some cases the target for genome editing has long homology stretches around the cleavage site. […] We speculated that indel formation was carried out by the RAD52 dependent single strand annealing pathway (SSA) which uses long stretched of homology.

Data set [2] relates to K562 cells expressing wild-type DNA-PKcs. Description: Genome editing of FRMD7 with Cas9 in K562 cells, amplicon sequencing (HDR / precise genome editing efficiency). It is filed as cell-based, human. The following applies: for HDR-increasing effect / precise genome editing efficiency, comparison of DNA-PKcs inhibitors: K562 cells, Cas9 induced DSB, 2 μM and 20 μM. How it is done: Cells were grown at 37° C. in a humidified incubator gassed with 5% CO2.
The recombinant A.s. Cpf1 and S.p. Cas9 protein and electroporation enhancer was ordered from IDT (Coralville, USA) and nucleofection was done using the manufacturer's protocol, except for the following alterations. […] Cells were counted using the Countess Automated Cell Counter (Invitrogen).
Incubation at 65° C. for 10 min, 68° C. for 5 min and finally 98° C. for 5 min was performed to yield ssDNA as a PCR template. […] PCR was done in a T100 Thermal Cycler (Bio-Rad) using the KAPA2G Robust PCR Kit (Peqlab, 07-KK5532-03) with supplied buffer B and 3 μl of cell extract in a total volume of 25 μl. The thermal cycling profile of the PCR was: 95° C.

Another data set relates to 409B2 hiPSCs. Description: Genome editing of FRMD7 with Cas9 protein in 409B2 hiPSCs. It is filed as cell-based, human. The following applies: 2 μM, Cas9 induced DSB. The source says:
FIG. 5: Comparison of the effect of DNA-PK inhibitors on genome editing efficiency. Editing efficiencies of FRMD7 with Cas9 protein and treatment with different concentrations of M3814, NU7026, and NU7441 are shown for K562 cells (A) and 409B2 hiPSCs (B). HDR, mix (HDR with indels), NHEJ, and MMEJ are indicated in green, light green, light blue and light purple, respectively. Error bars show the SEM of three replicates. A skull indicates excessive cell death of up to around 80% determined by phase contrast light microscopy.
(§1) We recently created an iCRISPR-Cas9n line from human induced pluripotent stem cells (hiPSCs) (409-B2, Riken BioResource Center) and human embryonic stem cells (hESCs) (H9) as described by Gonzalez et al. Stem cells were grown on Matrigel Matrix (Corning, 35248) in mTeSR1 medium (StemCell Technologies, 05851) with supplement (StemCell Technologies, 05852) that was replaced daily. K562 cells (ECACC, 89121407) were grown with IMDM (ThermoFisher, 12440053) supplemented with 10% FBS. Cells were grown at 37° C. in a humidified incubator gassed with 5% CO2. Media was replaced every second day for non-pluripotent cell lines. Cell cultures were maintained 4-6 days until ~80% confluency, and subcultured at a 1:6 to 1:10 dilution. Adherent cells were dissociated using EDTA (VWR, 437012C). The media was supplemented with 10 μM Rho-associated protein kinase (ROCK) inhibitor Y-27632 (Calbiochem, 688000) after cell splitting for one day in order to increase cell survival.
The recombinant A.s. Cpf1 and S.p. Cas9 protein and electroporation enhancer was ordered from IDT (Coralville, USA) and nucleofection was done using the manufacturer's protocol, except for the following alterations. […] Cells were counted using the Countess Automated Cell Counter (Invitrogen). […]

The next data set relates to K562 cells. Description: Resazurin assay for cell survival three days after editing. It is filed as cell-based, human. From the text: FIG. 2: Cell survival of human immortalized myelogenous leukemia cells K562 cells after treatment with the small molecule M3814. Results of a resazurin assay for cell survival three days after editing are shown. Resazurin is converted into fluorescent resorfin by cellular dehydrogenases and resulting fluorescence (Excitation: 530-570 nm, Emission: 590-620 nm) is a marker for the amount of living cells. Resorfin fluorescence (610±30 nm) of cells without any treatment is set to 100% cell survival. Error bars show the SEM of three technical replicates for three technical replicates.
Cells were either seeded with or without editing reagents. The media was supplemented with or without M3814 and each condition was carried out in duplicate. After 72 h media was aspirated and 100 μl fresh media together with 10 μl resazurin solution (Cell Signaling, 11884) was added. Resazurin is converted into fluorescent resorfin by cellular dehydrogenases and resulting fluorescence (Excitation: 530-570 nm, Emission: 590-620 nm) is considered as a linear marker for cell viability (O'Brien et al. 2000). Cells were incubated with resazurin at 37° C. The redox reaction was measured every hour by fluorescence readings using a Typhoon 9410 imager (Amersham Biosciences). […] Duplicate wells with media and resazurin, but without cells, were used a blank.

The next data set has as its system H9 hESCs. Kind of data set: Genome editing of LYPLA1 and SCAP by Cas9n double nicking in H9 hESCs-iCRISPR. It is filed as cell-based, human. The conditions noted are these: M3814 for three days.
Description: Genome editing efficiencies of the LYPLA1 and SCAP gene in H9 hESCs-iCRISPR Cas9 nickase (Cas9n) double nicking and treatment with M3814 for three days and with DNA-PKcs K3753R cells are shown. HDR, mix (HDR with indels), NHEJ (non-homologous end joining), and MMEJ (microhomology-mediated end joining with at least two bp of microhomology) are indicated in green, light green, light blue, and light purple, respectively.
as §1, with “The media was supplemented with 10 μM Rho-associated protein kinase (ROCK) inhibitor Y-27632 (Calbiochem, 688000) after cell splitting for one day in order to increase cell survival.” left out
The recombinant A.s. […] Cells were counted using the Countess Automated Cell Counter (Invitrogen). […]

For a further data set, the system named is polymerase theta (PoIQ). Description: Genome editing efficiency with PoIQ (MMEJ) inhibition in cells with DNA-PKcs KR mutation. It is filed as cell-based, human. The following applies: cells with DNA-PKcs KR mutation (NHEJ inhibited). As for the experimental part:
FIG. 6: Inhibition of polymerase theta (PoIQ) dependent microhomology mediated end-joining (MMEJ) can further increase HDR if the target of interest is prone to MMEJ repair. All cells have inhibited NHEJ due to the DNA-PKcs KR mutation, which can be transiently achieved by M3814 in wildtype cells as well. Shown are genome editing efficiencies. Cells were treated with different amounts of siRNA against PoIQ (Dharmacon ON-TARGET plus Human POLQ (10721) siRNA-SMART pool), single nicking of the first exon of PolQ, a combination of the SMART pool and coding strand nicking, and siRNA against PoIQ binding the mRNA at the sequence corresponding to amino acid 765 of PolQ. A cell line with both DNA-PKcs KR and PoIQ knockout mutation is shown for comparison. HDR, mix (HDR with indels), NHEJ, and estimated MMEJ (at least 2 bp microhomology) are indicated in green, light green, light blue, and light purple, respectively. Error bars show the SEM of at least two replicates.
For some targets HDR is increased but a substantial portion of genome editing events however still consists of indels. These are due to the microhomology mediated end-joining (MMEJ) pathway (also referred to as alternative NHEJ) which can compete with NHEJ and serves as a back-up pathway which relies on short stretches of microhomology at the cleavage site. […]

On to `NC(Cc1cc(O)c(O)cc1O)C(=O)O` (stereo not shown) [6-hydroxy-depa, 6-hydroxy-dopa], for which, in data set [1], the “HDR, combined NHEJ/MMEJ/SSA inhibition” value is listed as “drastic HDR increase”.
Regarding `NC(=O)c1ncn([C@@H]2O[C@H](COP(=O)(O)O)[C@@H](O)[C@H]2O)c1N` [AICAR, AICA ribonucleotide 5′-monophosphate], in data set [1], the “HDR, combined NHEJ/MMEJ/SSA inhibition” value is “drastic HDR increase”.
For the compound `COc1ccc([C@@H](O)c2cc(-c3ncnc4cc(N5CCOCC5)ccc34)c(F)cc2Cl)nn1` [M3814, Nedisertib], in data set [2] (K562 cells expressing wild-type DNA-PKcs, FRMD7, Cas9, transient M3814 treatment (three days), 18% without M3814), the “precise genome editing / HDR efficiency” value was determined as 81%. Moreover, the “HDR-increasing effect / precise genome editing efficiency, comparison of DNA-PKcs inhibitors” value in data set [2] is “stronger HDR-increasing effect than treatment with NU7026 and NU7441”. The “HDR efficiencies” value in the data set on 409B2 hiPSCs was “strongly increased HDR efficiencies”. Further, the “toxicity (cell survival, resazurin assay)” value in the data set on K562 cells is “moderate toxicity”. The “HDR efficiencies compared with DNA-PKcs K3753R mutation” value in the data set on H9 hESCs is “comparable to what is achievable by total inactivation of the DNA-PKcs catalytic active site”. Besides, the “HDR, combined NHEJ/MMEJ/SSA inhibition” value in data set [1] is given as “drastic HDR increase”.
`O=c1cc(N2CCOCC2)oc2c1ccc1ccccc12` [NU7026]: the “HDR-increasing effect / precise genome editing efficiency, comparison of DNA-PKcs inhibitors” value in data set [2] is “significantly less precise genome editing efficiency”. The “HDR efficiencies” value with 409B2 hiPSCs was “much lower efficiencies”.
Regarding `O=c1cc(N2CCOCC2)oc2c(-c3cccc4c3sc3ccccc34)cccc12` [NU7441], the “HDR-increasing effect / precise genome editing efficiency, comparison of DNA-PKcs inhibitors” value in data set [2] is on record as “significantly less precise genome editing efficiency”. Further, the “HDR efficiencies” value in the data set with 409B2 hiPSCs is “much lower efficiencies”.
With “siRNA aa765: siRNA binding PoIQ mRNA before the sequence corresponding to the first RAD51 binding domain (SEQ ID NO: 63) (TTGGAAAATACTGTAATCATCCCTGCA; listed as DNA, chemistry not given here)”, the “HDR and indels with MMEJ signature, siRNA alone” value with polymerase theta (PoIQ) was “high HDR”.
